# Measured values from patent publication US20230065562A1, “DUAL CONTROLS FOR THERAPEUTIC CELL ACTIVATION OR ELIMINATION” (Bellicum Pharmaceuticals, Inc., priority 2015, published 2023).
# How the values were obtained:
# [1] = biological target: iRmC9 (pBP1327 & pBP1328) (Homo sapiens, UniProt P42345+P62942, F37V); assay: SRα-SEAP assay of drug specificity, iRmC9 switch, 293 cells; settings: SRα-SEAP reporter
# [2] = tested on: SK-N-SH neuroblastoma cells; assay: Trans-well assay, HLA class I on tumor cells; format: cell-based; settings: antigen-independent, FIG. 118B
# Text: FIG. 118: (A) Trans-well assay set-up. (B) Cytokines secreted by transduced T cells in the top well upregulate HLA class I on the surface of SK-N-SH neuroblastoma cells in an antigen-independent, but iMC- and rimiducid-dependent manner.
# [3] = tested on: CD123+ THP-1 tumor cells; assay: NSG tumor xenograft model, THP-1-EGFPluc, iMC-CD123.ζ-modified T cells with Rim; format: in vivo, mouse; settings: costimulation by systemic rimiducid administration (1 mg/kg i.p. days 0 and 15)
# Description: Animal experiments: In vivo efficacy of iMC-CD123.ζ-modified T cells was assessed using an immune-deficient NSG tumor xenograft model. One million EGFPluc-expressing CD123^+ THP-1 tumor cells were injected i.v. into the animals, followed by a single i.v. injection on day 7 with varying non-transduced or iMC-CD123.ζ-modified T cells. Groups receiving CAR-T cells subsequently received i.p. injections of Rim (1 mg/kg) or vehicle only on days 0 and 15 post-T cell injection. Animals were evaluated for THP-1-EGFPluc tumor burden and weight change on a weekly basis using IVIS bioluminescent imaging (BLI) and for T cell persistence by flow cytometry and qPCR at day 30 post-T cell injection.
# FIG. 114. (A) PBMCs were activated and transduced with retrovirus including the CD123 iMC-CARζ vector. Twelve days after transduction, CAR expression was determined using anti-Q-bend10 antibody before injection into mice. […] (C) THP1-GFP.Fluc growth was measured using IVIS bioluminescence. (D, E) On day 30, mice were sacrificed and spleens were analyzed for the presence of CAR-T cells by flow cytometry and vector copy number assay.
# (B) On day 29, mice were sacrificed and spleens were analyzed for the presence of CAR-T cells by vector copy number assay.
# [4] = tested on: iCasp9M-transduced EBV-CTLs; assay: CID-induced apoptosis / loss of GFP+ cells in iCasp9M-transduced EBV-CTLs; format: cell-based, human
# Description: CID (AP20187; ARIAD Pharmaceuticals) at indicated concentrations was added to transfected 293T cells or transduced CTLs. Adherent and nonadherent cells were harvested and washed with annexin binding buffer (BD Pharmingen, San Jose, Calif.). Cells were stained with annexin-V and 7-amino-actinomycin D (7-AAD) for 15 minutes according to the manufacturer's instructions (BD Pharmingen). Within 1 hour after staining, cells were analyzed by flow cytometry using CellQuest software (Becton Dickinson).
# Inducible iCasp9M proficiency in CTLs was tested by monitoring loss of GFP-expressing cells after administration of CID; 91.3% (range, 89.5%-92.6% in 5 different donors) of GFP^+ cells were eliminated after a single 10-nM dose of CID. […] In all experiments, CTLs that survived CID treatment had low transgene expression with a 70% (range, 55%-82%) reduction in mean fluorescence intensity of GFP after CID. No further elimination of the surviving GFP^+ T cells could be obtained by an antigenic stimulation followed by a second 10-nM dose of CID. Therefore, the non-responding CTLs most likely expressed insufficient iCasp9M for functional activation by CID. To investigate the correlation between low levels of expression and CTL non-response to CID, CTLs were sorted for low, intermediate, and high expression of the linked marker gene GFP and mixed 1:1 with nontransduced CTLs from the same donor to allow for an accurate quantitation of the number of transduced T cells responding to CID-induced apoptosis.
# The number of transduced T cells eliminated increased with the level of GFP transgene expression (see FIGS. 4A, 4B and 4C). To determine the correlation between transgene expression and function of iCasp9M, iCasp9M IRES.GFP-transduced EBV-CTL were selected for low (mean 21), intermediate (mean 80) and high (mean 189) GFP expression. Selected T-cells were incubated overnight with 10 nM CID and subsequently stained with annexin V and 7-AAD. Indicated are the percentages of annexin V+/7-AAD− and annexin V+/7-AAD+ T−. Selected T-cells were mixed 1:1 with non-transduced T-cells and incubated with 10 nM CID following antigenic stimulation. Indicated is the percentage of residual GFP-positive T-cells on day 7.
# For GFPhigh-selected cells, 10 nM CID led to deletion of 99.1% (range, 98.7%-99.4%) of transduced cells. On the day of antigen stimulation, F-Casp9M.I.GFP-transduced CTLs were either untreated or treated with 10 nM CID. Seven days later, the response to CID was measured by flow cytometry for GFP. The percentage of transduced T cells was adjusted to 50% to allow for an accurate measurement of residual GFP^+ cells after CID treatment. The responses to CID in unselected (top row of and GFPhigh-selected CTLs (bottom row of was compared. The percentage of residual GFP^+ cells is indicated.
# After overnight incubation with 10 nM CID, F-Casp9M.I.GFPhigh-transduced T cells had apoptotic characteristics such as cell shrinkage and fragmentation by microscopic evaluation. […] A representative example of 3 separate experiments is shown.
# [5] = GFPhigh-selected, overnight 10 nM CID, mean
# [6] = representative example of 3 experiments
# Sequence of iRmC9 (pBP1327 & pBP1328) (P42345 2025-2113): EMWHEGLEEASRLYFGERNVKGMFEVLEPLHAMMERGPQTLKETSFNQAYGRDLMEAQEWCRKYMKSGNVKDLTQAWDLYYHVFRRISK
# Sequence of iRmC9 (pBP1327 & pBP1328) (P62942 2-107 F37V): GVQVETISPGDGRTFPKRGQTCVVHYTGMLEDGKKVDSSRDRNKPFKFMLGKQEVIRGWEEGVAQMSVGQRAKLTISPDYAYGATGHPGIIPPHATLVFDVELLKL
# Sequence of iRmC9 (pBP1327 & pBP1328) (P55211 135-416 partner limits assumed): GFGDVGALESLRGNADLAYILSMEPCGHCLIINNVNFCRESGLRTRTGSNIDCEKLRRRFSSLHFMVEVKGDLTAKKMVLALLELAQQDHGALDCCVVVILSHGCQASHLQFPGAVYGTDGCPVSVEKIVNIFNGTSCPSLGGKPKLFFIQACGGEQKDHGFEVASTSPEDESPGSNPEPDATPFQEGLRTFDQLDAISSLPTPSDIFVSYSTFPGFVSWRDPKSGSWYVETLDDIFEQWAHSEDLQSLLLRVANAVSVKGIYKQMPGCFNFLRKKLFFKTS
SMILES,activation of the iRmC9 switch [1],upregulation of HLA class I on the surface of SK-N-SH cells by cytokines of transduced T cells [2],eradication of CD123+ leukemic cells by iMC-CARζ T cells [3],"concentration sufficient to obtain the maximal deletion effect ([4]; F-Casp9M.I.GFPhigh, day 7) [nM]","deletion of transduced cells ([4]; GFPhigh-selected cells, 10 nM CID) [%]","apoptotic (annexin-V+/7-AAD−) phenotype [4, 5] [%]","necrotic (annexinV+/7-AAD+) phenotype [4, 5] [%]",reduction in mean fluorescence intensity of GFP in surviving CTLs ([4]; after CID) [%],"apoptotic phenotype (annexin V+, 7-AAD−) [4, 6] [%]","necrotic phenotype (annexin V+, 7-AAD+) [4, 6] [%]","GFP+ cells eliminated ([4]; single 10-nM dose of CID, unselected CTLs, 5 donors) [%]"
CC[C@H](C(=O)N1CCCC[C@H]1C(=O)O[C@H](CCc1ccc(OC)c(OC)c1)c1cccc(OCC(=O)NCCNC(=O)COc2cccc([C@@H](CCc3ccc(OC)c(OC)c3)OC(=O)[C@@H]3CCCCN3C(=O)[C@@H](CC)c3cc(OC)c(OC)c(OC)c3)c2)c1)c1cc(OC)c(OC)c(OC)c1 [rimiducid],can activate,rimiducid-dependent,efficiently eradicated,,,,,,,,
CC[C@H](C(=O)N1CCCC[C@H]1C(=O)O[C@H](CCc1ccc(OC)c(OC)c1)c1cccc(OCC(=O)NCC(CNC(=O)COc2cccc([C@@H](CCc3ccc(OC)c(OC)c3)OC(=O)[C@@H]3CCCCN3C(=O)[C@@H](CC)c3cc(OC)c(OC)c(OC)c3)c2)CN(C)C)c1)c1cc(OC)c(OC)c(OC)c1 [AP20187],,,,1,99.1,64,30,70,64,32,91.3
